These results are taken from patent publication US9623021B2, “Nuclear receptor binding agents” (GTX, Inc., priority 2007, dated 2017).

In series [1] the test system is SHP promoter. Briefly: SHP promoter-luciferase in HEK-293 cells transfected with FXR and ER-α. The class given is cell-based. The following applies: FIG. 12E left panel. On the procedure:
(§1) FIG. 12 depict the effect of ER-β ligand on PPAR-γ function through ligand binding domain (LBD). (A). HEK-293 cells were transfected with 0.25 μg PPRE-LUC, 5 ng CMV-renilla LUC and the indicated receptors (PPAR-γ and ER-β for the left panel and PPAR-α and ER-β for the right panel). The cells were treated 24 hrs after transfection with the indicated ligands and harvested 48 hrs after transfection and firefly luciferase activity was measured and normalized to renilla luciferase. (B). H475 in ER-β LBD is important for its function. H475 in ER-β LBD was mutated to alanine (A) using a site directed mutagenesis kit. Transactivation assay was performed as described in panel A in HEK-293 cells with a titration of ER-β ligands in wild type or ER-β H475A. (C). […] The cells were treated 24 hrs after transfection with the indicated ligands and harvested 48 hrs after transfection and firefly luciferase activity was measured and normalized to renilla luciferase. […] The cells were treated 24 hrs after transfection with the indicated ligands and harvested 48 hrs after transfection and firefly luciferase activity was measured and normalized to renilla luciferase. […] The cells were treated 24 hrs after transfection with the indicated ligands and harvested 48 hrs after transfection and firefly luciferase activity was measured and normalized to renilla luciferase. […]

Series [2] addresses ERα ligand binding domain (Homo sapiens (Human), UniProt P03372). Briefly: Competitive [3H]-estradiol radioligand binding, ERα (Example 21). The method, then:
(§2) ER binding affinity was determined via one of the following methods:
(§3) Briefly, the incubation mixture was filtered through a high affinity protein binding filter, and washed several times to remove any unbound radioactivity. The filter plate was air dried and sealed on the bottom.
(§4) Following incubation, plates were harvested onto GF/B filters and radioactivity was measured with a TopCount NXT (PerkinElmer). Nonspecific binding was subtracted from total binding to yield specific binding.

The target in series [3] is ERβ ligand binding domain (Homo sapiens (Human), UniProt Q92731). Briefly: Competitive [3H]-estradiol radioligand binding, ERβ (Example 21). The following applies: ratio between the binding constants of ER-α and ER-β. On the procedure: as §2, §3, §4
Series [4] has as its system THP-1 macrophage cell adhesion to bEND-3 endothelial cells. The series can be described thus: Macrophage adhesion assay (LPS induced THP-1 adhesion to bEND-3 endothelial cells). The series is classed as cell-based. The conditions noted are these: FIG. 13. The method, then:
To determine the anti-inflammatory effects of ER-β NRBAs in vitro, a macrophage adhesion assay was performed. Macrophages adhere to endothelial cells due to elevated levels of pro-inflammatory cytokines. This principle was used in this assay to determine the effect of one of the ER-β NRBAs on bacterial lipopolysaccharide (LPS) induced THP-1 macrophage cell adhesion to bEND-3 endothelial cells.

For a further series, the system named is ARPE-19 cells. The series can be described thus: Fluorescent detection of intracellular ROS in ARPE-19 cells (tBH oxidative stress). The conditions noted are these: 150 μM tBH, FIG. 20B.
In series [5] the target is T1, ER-α (Rattus norvegicus (Rat), UniProt P06211). The series is classed as cell-based. The following applies: 100 nM NRBA compared to 1 nM estradiol. On the procedure: COS or 293 cells were plated in DME without phenol red+10% cs FBS at 90,000 cells per well in 24 well plates, and were transfected with 0.25 μg of the vector “ERE-LUC”, where a firefly luciferase gene was driven by two estrogen responsive elements and 0.02 μg of the control CMV-LUC, Renilla where a luciferase gene was driven by a CMV promoter. […] All the receptors were cloned from rat tissue into the PCR3.1 vector backbone. Twenty four hours post transfection, cells were treated with compounds of this invention, estrogen, DHT, and other NRBAs or combinations thereof. Cells were harvested 48 hrs after transfection, and assayed for firefly and Renilla luciferase activity.

Series [6] has as its target T1, ER-α. The series can be described thus: Transient transfection and reporter gene assay, ER-α, HEK-293 cells (Example 22A). The series is classed as cell-based. The conditions noted are these: ERE-LUC. The method, then: Human estrogen receptors (ER-α and ER-β) were cloned from prostate cDNA into a pCR3.1 plasmid vector backbone. PGC-1 was cloned into mammalian two hybrid vector pACT. ER-β H475 was mutated to alanine using site-directed mutagenesis. Sequencing was performed to determine the absence of any non specific mutations. SHP promoter (−572 to +10) (26) was cloned into pGL3 basic LUC reporter vector and human FXR was cloned into pCR3.1. HEK-293 cells were plated at 100,000 cells per well of a 24 well plate in […] (DMEM)+5% charcoal-stripped fetal bovine serum (csFBS). The cells were transfected using Lipofectamine (Invitrogen, Carlsbad, Calif.) with 0.25 μg ERE-LUC, 0.02 μg CMV-LUC (renilla luciferase) and 12.5 ng of rat ER-α or 25 ng rat ER-β. […] Luciferase assays were performed 48 hrs after transfection.
To determine if the selectivity in ER binding also translated into ER-β-selective activity, transient transactivation assays were performed in HEK-293 cells transfected with plasmids encoding ER-α or ER-β and ERE-LUC. The cells were treated with varying concentrations of the ligands and their EC50 values were determined.

Series [7] deals with Ishikawa endometrial cells. Briefly: Ishikawa growth assay (alkaline phosphatase). The class given is cell-based. The method, then:
Ishikawa cells were plated at 15,000 cells/well in 24 well plates in DME:F12 (1:1)+5% csFBS w/o phenol red. The cells were maintained in this medium at 37° C. for 3 days. Medium was changed immediately prior to drug treatment for an additional 72 hrs. After 72 hrs, the cells were fixed with formalin and the amount of alkaline phosphatase (ALP) measured by para-nitrophenyl phosphate method.
This effect is one potential concern in the development of ER-α SERMs.

Another series relates to PPAR-γ. The series can be described thus: PPAR-γ transactivation (PPRE-LUC) in HEK-293 cells co-transfected with ER-β. The class given is cell-based. The following applies: FIG. 12A left panel. On the procedure:
as §1

The test system of a further series is PPAR-α. The series can be described thus: PPAR-α transactivation (PPRE-LUC) in HEK-293 cells co-transfected with ER-β. The class given is cell-based. The following applies: FIG. 12A right panel. The method, then: as §1
Series [8] concerns SHP promoter. Briefly: SHP promoter-luciferase in HEK-293 cells transfected with FXR and ER-β. The class given is cell-based. The conditions noted are these: FXR and ER-β plasmids, FIG. 12E right panel. The method, then:
FIG. 12 depict the effect of ER-β ligand on PPAR-γ function through ligand binding domain (LBD). (A). HEK-293 cells were transfected with 0.25 μg PPRE-LUC, 5 ng CMV-renilla LUC and the indicated receptors (PPAR-γ and ER-β for the left panel and PPAR-α and ER-β for the right panel). The cells were treated 24 hrs after transfection with the indicated ligands and harvested 48 hrs after transfection and firefly luciferase activity was measured and normalized to renilla luciferase. (B). H475 in ER-β LBD is important for its function. H475 in ER-β LBD was mutated to alanine (A) using a site directed mutagenesis kit. Transactivation assay was performed as described in panel A in HEK-293 cells with a titration of ER-β ligands in wild type or ER-β H475A. (C). […] HEK-293 cells were transfected with 0.25 μg PPRE-LUC, 5 ng CMV-renilla LUC and 50 ng of the indicated receptors (PPAR-γ or PPAR-γ and wild type ER-β or PPAR-γ and ER-β H475A). The cells were treated 24 hrs after transfection with the indicated ligands and harvested 48 hrs after transfection and firefly luciferase activity was measured and normalized to renilla luciferase. (D). […] HepG2 cells were transfected with 0.25 μg PPRE-LUC, 5 ng CMV-renilla LUC, 0.5 μg PGC-1 or vector backbone and 100 ng of the indicated receptors (PPAR-γ or PPAR-γ and wild type ER-β or PPAR-γ and ER-β H475A for top panels and PPAR-α or PPAR-α and ER-β for bottom panel). The cells were treated 24 hrs after transfection with the indicated ligands and harvested 48 hrs after transfection and firefly luciferase activity was measured and normalized to renilla luciferase. (E). SHP-1 is an ER-β specific target gene. HEK-293 cells were transfected with 0.25 μg SHP-LUC, 5 ng CMV-renilla LUC and 50 ng of the indicated receptors (FXR and ER-α for the left panel and FXR and ER-β for the right panel). The cells were treated 24 hrs after transfection with the indicated ligands and harvested 48 hrs after transfection and firefly luciferase activity was measured and normalized to renilla luciferase. […]

Series [9] has as its system high fat diet fed C57BL6 mice. Briefly: High fat diet induced obesity model, prevention studies (studies 1 and 2).
Procedure: Study A: C57BL6 male mice of 4 weeks of age were divided into different groups and were fed with a normal or high fat diet (Harlan, Ind.).
For the treatment study (study 3), the animals were maintained on the irrespective diets for 6 weeks and then treated daily as indicated for an additional 18 weeks. Biweekly body weights and food consumption were measured. The animals were sacrificed at the end of each study and blood and tissues were collected for RNA isolation, histology and protein estimation.
Cholesterol and leptin concentrations were measured in serum using ELISA-based methods.
Histology was performed on cryosections and stained with oil 0 red.
Oral glucose tolerance tests (OGTT) were performed on 16-h fasted mice. Mice were given 150 mg glucose by oral gavage through a gastric tube.
Six week old C57BL/6 mice were randomized, based on body weight, into three study groups as shown in the Study Parameters Table below.
The mice were treated for 12 weeks. Twice weekly, the body weight and feed consumption were measured.
A glucose tolerance test was also performed at the completion of the study by administering 150 mg glucose orally to the mice and measuring blood glucose levels at 0, 15, 30 and 60 minutes post glucose administration.
At sacrifice, the mice organ weights were measured and collected for histology, gene expression and protein expressions. Blood was collected for serum marker determination (cholesterol, glucose, leptin).
Dual energy X-ray absorptiometry (DEXA) was performed to measure the body composition in Study 1.
An MRI scan was performed at the beginning of the study, after 6 weeks and at the completion of the study.
Setting [10] is: Brown Adipose Tissue, vs high fat diet vehicle, >2-fold, p<0.01.
Setting [11] is: Liver, vs high fat diet vehicle, >2-fold, p<0.01.
The mark [12] stands for this setting: White Adipose Tissue, vs high fat diet vehicle, >2-fold, p<0.01.
[13] abbreviates: high fat diet, 30 mg/kg/day s.c., 12 weeks.
[14] abbreviates: high fat diet, 30 mg/kg/day s.c., 12 weeks, FIG. 7.
The mark [15] stands for this setting: high fat diet, 30 mg/kg/day s.c., 12 weeks, study 1.
The mark [16] stands for this setting: high fat diet, 30 mg/kg/day s.c., Study 2.

Entries after “also recorded” stand apart in the source; their conditions may differ.

Sequence of ERβ ligand binding domain (Q92731 264-498, species assumed): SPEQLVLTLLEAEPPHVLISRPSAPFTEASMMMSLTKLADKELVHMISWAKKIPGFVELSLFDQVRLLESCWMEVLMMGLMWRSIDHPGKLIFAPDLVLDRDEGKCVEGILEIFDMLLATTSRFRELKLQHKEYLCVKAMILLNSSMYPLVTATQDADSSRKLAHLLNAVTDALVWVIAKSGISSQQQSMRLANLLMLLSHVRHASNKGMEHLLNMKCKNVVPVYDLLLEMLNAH
Sequence of ERα ligand binding domain (P03372 whole entry, looked up, species assumed, the tested form may be a part): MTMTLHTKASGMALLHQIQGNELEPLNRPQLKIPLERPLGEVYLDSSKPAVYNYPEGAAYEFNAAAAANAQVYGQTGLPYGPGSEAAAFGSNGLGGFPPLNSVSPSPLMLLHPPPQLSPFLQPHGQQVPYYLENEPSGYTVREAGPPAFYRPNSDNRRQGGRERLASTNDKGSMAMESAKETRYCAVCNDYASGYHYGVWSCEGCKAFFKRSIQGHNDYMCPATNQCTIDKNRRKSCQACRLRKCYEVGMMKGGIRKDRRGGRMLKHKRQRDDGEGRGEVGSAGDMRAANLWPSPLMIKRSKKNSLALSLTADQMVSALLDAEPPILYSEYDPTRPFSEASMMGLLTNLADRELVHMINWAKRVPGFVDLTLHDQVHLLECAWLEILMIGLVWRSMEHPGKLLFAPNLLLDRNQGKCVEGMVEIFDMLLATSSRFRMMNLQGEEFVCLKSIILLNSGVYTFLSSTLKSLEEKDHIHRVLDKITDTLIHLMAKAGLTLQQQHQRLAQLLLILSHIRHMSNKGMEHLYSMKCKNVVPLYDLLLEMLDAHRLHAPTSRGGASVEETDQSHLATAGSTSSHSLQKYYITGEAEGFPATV

On to `CCCc1c(-c2ccc(O)cc2)nn(-c2ccc(O)cc2)c1-c1ccc(O)cc1` [PPT, 1,3,5-tris(4-hydroxyphenyl)-4-propyl-1H-pyrazole], for which the SHP activity entry with SHP promoter [1] is “increased SHP activity”.

The term Ki denotes the equilibrium dissociation constant of an inhibitor or competing ligand from its target. In [2], `O=c1c2c(O)cc(O)cc2c(Cl)cn1-c1ccc(O)cc1` [Compound 12y, 4-chloro-6,8-dihydroxy-2-(4-hydroxyphenyl)isoquinolin-1(2H)-one] showed a Ki of 36 nM. Further, the “Ki Ratio (ER-α/ER-β)” value in [3] is 11. For the same molecule, the “adhesion of 3H labeled THP-1 cells to bEND-3 cells” value in [4] is on record as “significantly inhibited the adhesion”. The “prevention of ROS formation / oxidative damage” value in the series on ARPE-19 cells was “protected ARPE-19 cells from oxidative damage”.

With `N#Cc1cn(-c2ccc(O)cc2)c(=O)c2c(O)cc(O)cc12` [Compound 14m, 6,8-dihydroxy-2-(4-hydroxyphenyl)-1-oxo-1,2-dihydroisoquinoline-4-carbonitrile], the “Estradiol activity at 100 nM, ER-α” value on ER-α [5] is reported as 49%. Moreover, the “function at ER-α in transactivation” value on ER-α [6] was “agonists”. Also, in series [7] (FIG. 3C), the Ishikawa cell proliferation result is given as “weakly induce”. In addition, the “concentration at which proliferation of Ishikawa cells was induced” value in series [7] (highest concentration tested, ALP assay, 72 hrs) was determined as 1 µM. For the same molecule, in the series with PPAR-γ, the “troglitazone-induced PPAR-γ activity” value is “partially inhibited”. For the same molecule, in the series on PPAR-α, the “WY14643 induced PPAR-α transactivation” value is “did not affect”. For the same molecule, in the series on SHP promoter [8], the SHP activity result is listed as “neither of the ligands activated SHP”. Moreover, the “prevention of body weight increase caused by the high fat diet” value in series [9] (30 mg/kg/day s.c., 12 weeks, Study 2) is “more than 50%”. The “high fat diet increase in expression of genes that promote lipogenesis (LPL, FASN, SREBP-1, PLTP, Dhcr24)” value in [9] (BAT and WAT) was “reversed”. Also, in [9] (setting [10]), the “Ddit3 (DNA damage inducible transcript III) gene expression” value is reported as “Decrease”, the “Dhcr24 (dehydrocholesterol reductase) gene expression” value was “Decreased”, the “ER-β (Estrogen receptor β) gene expression” value is on record as “Increased” and the “GPx-3 (glutathione peroxidase) gene expression” value is given as “Increase”. Also, in [9] (setting [10]), the “LPL (lipoprotein lipase) gene expression” value is “Decrease”, the “PLTP (phospholipid transfer protein) gene expression” value was “Decrease” and the “UCP-1 (uncoupled protein-1) gene expression” value is reported as “Increased”. In [9] (setting [11]), the “CIDEA (Cell death inducing DNA fragmentation factor) gene expression” value is on record as “Decrease” and the “GPx-3 (glutathione peroxidase) gene expression” value is on record as “Increase”. In series [9] (setting [12]), the “Ddit3 (DNA damage inducible transcript III) gene expression” value is “Decrease”, the “FASN (fatty acid synthase) gene expression” value was “Decrease”, the “LPL (lipoprotein lipase) gene expression” value is given as “Decrease” and the “SREBP1 (Sterol regulatory element binding protein 1) gene expression” value is recorded as “Decrease”. Besides, in series [9] (setting [13]), the “bone mineral content (BMC), DEXA” value is “prevented the loss in BMC”; the “serum cholesterol increase by high fat diet” value is “significantly reversed”; the “serum leptin increase by high fat diet” value is listed as “significantly reversed”. In addition, the “white adipose tissue (WAT) weight” value in [9] (high fat diet, 30 mg/kg/day s.c., 12 weeks, FIG. 6B) is listed as “significantly reduced”. Besides, in series [9] (setting [14]), the gastrocnemius muscle weight entry is reported as “increased gastrocnemius muscle weight” and the “white adipose tissue (WAT) weight” value was “prevented the increase in the WAT weight; also recorded: comparably decreased WAT weight”. Moreover, in series [9] (setting [15]), the “body fat (DEXA)” value is on record as “suppressing fat mass formation”; the “reduction in body weight compared to high fat diet and vehicle” value was “greater than 85%”; the “weight gained more than normal diet-fed controls” value was found to be 5%. Besides, the “serum macrophage inflammatory protein-1β (MIP-1β) increase by high fat diet” value in [9] (high fat diet, 30 mg/kg/day s.c., FIG. 6F) is recorded as “completely reversed”. For the same molecule, the “accumulation of fat in the liver (oil red staining)” value in series [9] (high fat diet, 30 mg/kg/day s.c., FIG. 8) is “attenuated the accumulation of lipid droplets in the liver; also recorded: completely prevented the accumulation of fat in the liver”. For the same molecule, in series [9] (setting [16]), the “fat mass (MRI)” value is “reduce fat mass”, the “lean mass (MRI)” value is on record as “increase muscle mass; also recorded: increased the lean mass” and the “prevention of the increase in body fat (MRI)” value was “more than 50%”. Moreover, the “total caloric intake (feed consumption)” value in series [9] (high fat diet, 30 mg/kg/day s.c., study 1) is reported as “did not affect total caloric intake”. The “blood glucose levels, glucose tolerance test” value in series [9] (high fat diet, 30 mg/kg/day s.c., 150 mg glucose orally) is reported as “not statistically different from the normal diet controls”. In series [9] (high fat diet, 12 weeks, FIG. 9A), the testes weights result is “not altered”. Moreover, in series [9] (high fat diet, 12 weeks, FIG. 9B), the serum testosterone levels entry is “did not affect; also recorded: not altered”. Also, the “serum follicle stimulating hormone (FSH)” value in [9] (high fat diet, 12 weeks, FIG. 9C) is recorded as “did not affect; also recorded: not altered”.
